{"source": "patent US6979468B1", "about": "“Oral composition and method for the treatment of inflammatory cutaneous disorders” (Sirius Laboratories, priority 2002, dated 2005)", "origin": "cited, not measured here", "system": "acne vulgaris", "settings": "administered orally, 100–600 milligrams per day in divided doses taken 2 to 4 times per day"}
{"smiles": "NC(=O)c1cccnc1", "note": "[nicotinamide]", "values": [{"measurement": "effect on acne lesions", "result": "decrease inflammatory lesions such as papules, pustules, and cysts, but not comedones"}]}
